According to article PMC7663272, “Discovery of Tricyclic Pyranochromenone as Novel Bruton’s Tyrosine Kinase Inhibitors with In Vivo Antirheumatic Activity” (International Journal of Molecular Sciences, 2020):
“Also recorded” adds a separate entry of the source.

Key:
BTK = system: BTK; parameters: method as in not given; conditions: reported tricyclic BTK inhibitors, printed in Figure 2b; ref not given; cited from earlier work
BTK-wt = target: T1, BTK-wt (Homo sapiens, UniProt Q06187); assay: HotSpot kinase enzymatic assay, BTK-wt; type: biochemical; conditions: for inhibition at 10 µM: vs negative control (DMSO), mean of two separate experiments, NA = not active at 10 µM, read-out: % Inhibition (10 µM) BTK-wt; for IC50: HotSpot assay, 10 μM ATP, GraphPad Prism
T1 construct: purchased Reaction Biology Corporation
T1 sequence (Q06187 whole entry): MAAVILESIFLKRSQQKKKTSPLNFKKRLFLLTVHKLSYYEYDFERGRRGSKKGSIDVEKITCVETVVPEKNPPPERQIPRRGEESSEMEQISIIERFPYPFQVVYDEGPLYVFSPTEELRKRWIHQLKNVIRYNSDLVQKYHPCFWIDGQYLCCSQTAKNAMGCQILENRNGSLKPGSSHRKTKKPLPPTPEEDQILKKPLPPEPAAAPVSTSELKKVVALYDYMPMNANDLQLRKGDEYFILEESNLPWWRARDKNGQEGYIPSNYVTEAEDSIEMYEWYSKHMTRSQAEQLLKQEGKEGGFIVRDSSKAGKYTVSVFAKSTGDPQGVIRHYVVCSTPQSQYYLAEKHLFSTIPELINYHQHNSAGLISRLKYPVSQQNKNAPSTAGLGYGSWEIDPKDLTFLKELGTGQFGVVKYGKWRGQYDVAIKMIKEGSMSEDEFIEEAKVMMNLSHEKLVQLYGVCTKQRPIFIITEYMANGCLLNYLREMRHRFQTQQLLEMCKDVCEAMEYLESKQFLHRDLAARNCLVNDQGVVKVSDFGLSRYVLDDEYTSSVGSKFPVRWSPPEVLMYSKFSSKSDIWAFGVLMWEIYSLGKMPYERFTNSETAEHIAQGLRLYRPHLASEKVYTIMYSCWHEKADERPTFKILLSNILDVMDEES
Method: (§1) Kinase enzymatic assays for BTK, BMX, TXK, TEC, ITK, EGFR, ERBB2, ERBB4, and JAK3 were performed at Reaction Biology Corporation (www.reactionbiology.com, Malvern, PA, USA) using the HotSpot assay platform. Briefly, specific kinase/substrate pairs and the required cofactors were prepared in a reaction buffer comprising 20 mM HEPES (pH 7.5), 10 mM MgCl2, 1 mM EGTA, 0.02% Brij35, 0.02 mg/mL BSA, 0.1 mM Na3VO4, 2 mM DTT, and 1% DMSO. The compounds were added to the reaction mixture and allowed to incubate. Approximately 20 min later, a mixture of ATP (Sigma-Aldrich, St. Louis, MO, USA) and ^33P ATP (PerkinElmer, Waltham, MA, USA) was added to the reaction mixture at a final concentration of 10 μM. The reactions were performed at room temperature for 120 min; subsequently, the reactions were spotted onto P81 ion exchange filter papers (Whatman Inc., Maidstone, UK). […] GraphPad Prism software was used to obtain the IC50 values and perform curve fitting.

BTK-C481S = target: T2, BTK-C481S (Homo sapiens, UniProt Q06187, C481S); assay: HotSpot kinase enzymatic assay, mutant BTK; type: biochemical; conditions: vs negative control (DMSO), mean of two separate experiments
T2 construct: purchased Reaction Biology Corporation
T2 sequence (Q06187 whole entry C481S): as the sequence (Q06187 whole entry) above, with C481S counted along it
Excerpt: To confirm the role of the electrophilic warhead groups, the acryloyl group of compound 8 was replaced with methylacryloyl (11) and propionyl (12) groups, which are less electrophilic or lack an electrophilic feature. […] The significant difference in the inhibitory activity of compounds 8 and 12 could explain the critical role of the acryloyl moiety in potentiating the BTK inhibitory activity of compound 8. […] It was also confirmed by comparison of the inhibitory activity of the representative compounds (8–10) with electrophilic warheads against wild-type BTK (BTK-wt) and mutant BTK (BTK-C481S).
as §1, with “UK). Any unbound phosphate was removed by thoroughly washing the filter papers with 0.75% phosphoric acid.” for “UK).”

[1] = system: collagen-induced arthritis (CIA); assay: Murine model of collagen-induced arthritis (CIA); type: in vivo; conditions: mice, 0.3 mg/kg, daily oral; t-test
Method: The in vivo efficacy of compound 8 was evaluated in a murine inflammatory model of collagen-induced arthritis (CIA). The study included four groups: a vehicle-treated control group and three treatment groups. The treatment groups comprised a dexamethasone-treated group, in which dexamethasone served as the positive control, and two treatment groups, in which animals were treated with compound 8 at doses of 10 and 50 mg/kg. Compound 8 was administered once daily for 15 days by oral gavage, and the in vivo efficacy was evaluated by measuring the clinical score and foot volume. […] There were no significant changes in the body weights of animals in all the treatment groups (data not shown) during treatment.
The animal study was approved by the Institutional Animal Care and Use Committee (IACUC) of the Korea Research Institute of Bioscience and Biotechnology on March 15, 2017, under approval number KRIBB-AEC-17090. Male DBA1/JNCrli mice (7 weeks old) were purchased from Japan CRL, Inc. The mice were housed in specific pathogen-free (SPF) conditions and were allowed ad libitum access to food and water. After 7 days of acclimatization, the mice were immunized with 0.05 mL of a type II collagen emulsion (Hooke Kit^TM Chicken Collagen, Cat. No. EK-0210 from Hooke) and Freund’s complete adjuvant by subcutaneous injection at 1.5 cm distal from the base of the tail. After 21 days, the immunized mice were administered a booster injection with 0.05 mL of a type II collagen emulsion (Hooke Kit^TM Chicken Collagen, Cat. No. EK-0211 from Hooke) and Freund’s incomplete adjuvant. The emulsions were prepared according to the manufacturer’s instructions. On day 21, the mice with CIA were randomized into four groups. The animals in the four groups were administered either 0.3 mg/kg dexamethasone (n = 5), 10 mg/kg compound 8 (n = 5), 50 mg/kg compound 8 (n = 5), or vehicle (n = 5), once a day, for […], orally. The vehicle, in which all test compounds were suspended, comprised DMAC (10%), Tween 80 (10%), and DW (80%). Clinical arthritis scores and body weights were assessed three times per week for 15 days. The paw volumes were measured using a LE7500 plethysmometer (Panlab, Barcelona, Spain) on days 0 and 42.

Compound | IC50 (BTK) | BTK inhibitory activity (in words) (BTK-wt) | inhibition at 10 µM (BTK-wt) | IC50 (BTK-wt) | inhibition at 10 µM (BTK-C481S) | clinical scores vs control [1]
Cc1c(-c2c(F)cc(C(N)=O)c3[nH]c4c(c23)CC[C@H](C(C)(C)O)C4)cccc1-n1c(=O)c2cccc(F)c2n(C)c1=O [BMS-986142] | 0.0005 µM | – | – | – | – | –
CC(C)=CC(=O)O[C@H]1Cc2cc3ccc(=O)oc3cc2OC1(C)C [Compound 1, Decursin] | – | weak inhibitory activity | 32% | > 10 µM | – | –
CC1(C)Oc2cc3oc(=O)ccc3cc2C[C@@H]1O [Compound 2, S-(+)-Decursinol] | – | inactive | 7.7% | > 10 µM | – | –
C/C=C/C(=O)O[C@H]1Cc2cc3ccc(=O)oc3cc2OC1(C)C [Compound 3, (7S)-(+)-But-2-enoic acid, 8,8-dimethyl-2-oxo-6,7-dihydro-2H,8H-pyrano[3,2-g]chromen-7-ylester] | – | minimal inhibitory activity | 11.3% | > 10 µM | – | –
CC1(C)Oc2cc3oc(=O)ccc3cc2C[C@@H]1OC(=O)/C=C/CBr [Compound 4] | – | minimal inhibitory activity | 20.3% | > 10 µM | – | –
CC1(C)Oc2cc3oc(=O)ccc3cc2C[C@@H]1OC(=O)/C=C/c1ccccc1 [Compound 5, (7S)-(+)-trans-Cinnamic acid, 8,8-dimethyl-2-oxo-6,7-dihydro-2H,8H-pyrano[3,2-g]chromen-7-yl ester] | – | no BTK inhibitory activity | – | > 10 µM | – | –
CC1(C)Oc2cc3oc(=O)ccc3cc2C[C@@H]1OC(=O)/C=C/c1ccc(F)cc1 [Compound 6, (7S)-(+)-trans-4-Fluorocinnamic acid, 8,8-dimethyl-2-oxo-6,7-dihydro-2H,8H-pyrano[3,2-g]chromen-7-yl ester] | – | no BTK inhibitory activity | – | > 10 µM | – | –
CC#CC(=O)O[C@H]1Cc2cc3ccc(=O)oc3cc2OC1(C)C [Compound 7, (7S)-(+)-But-2-yonic acid, 8,8-dimethyl-2-oxo-6,7-dihydro-2H,8H-pyrano[3,2-g]chromen-7-ylester] | – | relatively low BTK inhibitory activity | 34.5% | 7 µM | – | –
C=CS(=O)(=O)O[C@H]1Cc2cc3ccc(=O)oc3cc2OC1(C)C [Compound 9, (7S)-(+)-Ethenesulfonic acid, 8,8-dimethyl-2-oxo-6,7-dihydro-2H,8H-pyrano [3,2-g]chromen-7-yl ester] | – | – | 95.8% | 0.9 µM | 15.8% | –
CC1(C)Oc2cc3oc(=O)ccc3cc2C[C@@H]1OC(=O)CCl [Compound 10, (7S)-(+)-Chloroacetic acid, 8,8-dimethyl-2-oxo-6,7-dihydro-2H,8H-pyrano [3,2-g]chromen-7-ylester] | – | – | 99.2% | 0.5 µM | 18.6% | –
C=C(C)C(=O)O[C@H]1Cc2cc3ccc(=O)oc3cc2OC1(C)C [Compound 11, (7S)-(+)-2-Methylacrylic acid, 8,8-dimethyl-2-oxo-6,7-dihydro-2H,8H-pyrano[3,2-g]chromen-7-yl ester] | – | completely diminished | – | > 10 µM | – | –
CCC(=O)O[C@H]1Cc2cc3ccc(=O)oc3cc2OC1(C)C [Compound 12, (7S)-(+)-Propionic acid, 8,8-dimethyl-2-oxo-6,7-dihydro-2H,8H-pyrano [3,2-g]chromen-7-ylester] | – | completely diminished; also recorded: BTK inhibitory activity was lost | – | > 10 µM | – | –
C[C@@H]1C[C@H]2[C@@H]3CCC4=CC(=O)C=C[C@]4(C)[C@@]3(F)[C@@H](O)C[C@]2(C)[C@@]1(O)C(=O)CO [dexamethasone, reference compound] | – | – | – | – | – | differed significantly from those with the control
